The record followed here is patent publication US11534445B2, “Compositions and methods for immune-mediated cancer therapy” (Teclison Limited, priority 2015, dated 2022).

Entries after “also recorded” stand apart in the source; their conditions may differ.

The conditions of data set [1]: mouse, in vivo. Here is the method: (§1) Treatment of tumor-bearing HBx mice with tirapazamine and hepatic artery ligation: The HBx transgenic mice were subjected to the left hepatic artery ligation for 40 min and the silk ligation was subsequently untied. During the studies on the drug effects, 0.9% saline, doxorubicin (10 mg/kg), or TPZ (3 mg/kg) were injected into the tail vein of each mouse for 7 min before the hepatic artery ligation. After completion of the injection, a midline laparotomy was performed to expose the left lobe of liver and liver hilum to dissect the left or common hepatic artery for transient ligation. All mice were anaesthetized with intraperitoneal injection of 400 mg/kg avertin (Sigma-Aldrich, St. Louis, Mo., USA) during experiments. Serial serum samples were collected for evaluating the ALT and total bilirubin by using ARKRAY Spotchem EZ Chemistry Analyzer SP-4430 (Arkray, Inc., Kyoto, Japan) within the first week. After 1 or 7 days, the liver tissues were collected for HE staining.

The subject of data set [2] is hepatocellular carcinoma (HCC) in HBx transgenic mice. The data set is described as follows: Tirapazamine or doxorubicin plus left hepatic artery ligation (HAL) in tumor-bearing HBx transgenic mice: tumor necrosis by H&E histology. The settings on record: for necrosis of HCCs in the territory of the left HAL, Day 7 (H&E): tirapazamine 3 mg/kg (n=3) or doxorubicin 10 mg/kg (n=2) IV + left HAL 40 min; for necrosis in the HCC within the territory of HAL, Day 1 post-treatment: tirapazamine 3 mg/kg or doxorubicin 10 mg/kg IV tail vein + transient left HAL, n=1 per group, histopathology. The format is in vivo, mouse. Here is the method: Materials and methods: All the HBx transgenic mice were bred and followed-up in a specific pathogen-free facility; the tails of individual mice were subsequently collected for the genotyping process on weaning at 3 weeks of age. […] Transgenic mice having tumors 0.5-2 cm in diameter were used for the study.
as §1
Histology and morphometric analysis of tumor necrosis: For each mouse, the liver tissue containing the whole tumor and the adjacent non-tumorous region were fixed overnight in 10% formaldehyde and embedded in paraffin. The liver tissue sections (3 μm thickness) crossing the whole tumor were subjected to hematoxylin and eosin (H&E) staining for histological analysis. The percentage of necrosis in each tumor was quantified by dividing the necrotic area by the total tumor area in five cross sections covering the whole tumor, by using the ImageJ software (Version 1.46r, National Institutes of Health, Bethesda, Md., USA).
The HBx transgenic mice spontaneously develop hepatocellular carcinoma at approximately 18 months. […] Next, the efficacy of tirapazamine in combination with HAL was investigated and compared with a commonly used chemotherapy agent, doxorubicin, in TACE. A small group was first tested to compare the effects of saline (n=1), doxorubicin (10 mg/kg, n=1) and tirapazamine (3 mg/kg, n=1) to treat HBx transgenic mice that had palpable HCC, along with transient left HAL. Mice were sacrificed 1 day after treatment with tirapazamine and transient left HAL.
The same study was conducted to examine the histopathology changes at 7 days post treatment. The number of mice used for each group were saline (n=2), doxorubicin (10 mg/kg, n=2) and tirapazamine (3 mg/kg, n=3).

For a further data set, the system named is hepatocellular carcinoma. The data set is described as follows: Phase I dose-defining study of tirapazamine combined with trans-arterial embolization (TAE): efficacy by contrast MRI, modified RECIST. The class given is in vivo, human. The note with it: for response on contrast enhanced MRI at 6th week after embolization: individual patients/lesions treated with tirapazamine before TAE. The source says:
(§2) In order to test the clinical tolerability and efficacy of tirapazamine combined with TAE in humans, a phase I dose-defining study was initiated in US major medical centers to examine the tolerability, preliminary efficacy and determine the recommended phase 2 dose (RP2D) of tirapazamine when combined with TAE. HCC patients enrolled were Child-Pugh class A, were not surgical candidates and had up to 4 tumor lesions with no tumor lesion size greater than 10 cm and were suitable for embolization. The results of the first 12 evaluable patients were available for analysis.
(§3) Three patients were enrolled in either cohort.
The preliminary efficacy of the first 12 patients was analyzed and is exemplified in FIG. 4. Efficacy outcome is read by contrast […] based on modified Response Evaluation Criteria In Solid Tumors (RECIST) criteria so that only the size of the viable tumor was measured. […] Three additional patients had over 30% necrosis or partial response (PR). The overall response rate (CR+PR) was 83%.

The nature of data set [3]: Phase I dose-defining study of tirapazamine combined with TAE: tolerability. The note with it: 3 patients per cohort. The format is in vivo, human.
Excerpt: as §2, §3

The conditions of data set [4]: rat, in vivo.
Data set [5] relates to NCI-H460 human lung cancer cells. The data set is described as follows: NCI-H460 lung cancer xenograft in BALB/c nude mice: tirapazamine plus vascular disrupting agent. The format is in vivo, mouse. The settings on record: combretastatin A4 10 mg/kg i.v. or DMXAA 20 mg/kg i.v., 3-5 min after tirapazamine 30 mg/kg i.p. Here is the method: Materials and methods: Human lung cancer NCI-H460 cells were purchased from ATCC and used in this study. Cells were sub-cultured within 5 passages before inoculated into the mice. After the animals' acclimation period, approximately 1.5×10^6 NCI-H460 cells in 200 μL of serum-free media/matrigel (50:50 v/v) were injected subcutaneously to each mouse under anesthesia with 3-4% isoflurane. BALB/c nude mice, male, about 4-5 weeks and 18-20 g in weight were purchased from Shanghai SLAC Laboratory Animal Co. Ltd., China and housed in vivarium in 3-5 mice/cage by treatment group. Mice had free access to food (irradiated, Shanghai SLAC Laboratory Animal Co. Ltd. China) and water (municipal tap water filtered by Mol Ultrapure Water System).
Mice from each group were euthanized with CO2 asphyxiation followed by cervical dislocation at day 18 after the first dose, tumors were collected, weighed, and their pictures taken. The formalin fixed tumors were used for histopathology work. After formalin fixation, the tumors were paraffin embedded to get FFPE blocks. One block was made for each tumor chunk from one mouse. The FFPE blocks were sectioned at about 4 μm thick and processed for H&E staining, histopathology examination, and quantification of tumor necrosis. Detailed results are discussed further below. […]

`COc1cccc2c1C(=O)c1c(O)c3c(c(O)c1C2=O)C[C@@](O)(C(=O)CO)C[C@@H]3O[C@H]1C[C@H](N)[C@H](O)[C@H](C)O1` [doxorubicin]: in data set [1], the “total bilirubin in serum” value is on record as “within the normal range”. Besides, in data set [2], the “necrosis of HCCs in the territory of the left HAL, Day 7 (H&E)” value is given as “Little to no pathological changes” and the “necrosis in the HCC within the territory of HAL, Day 1 post-treatment” value is “about 5%”.
As for `Nc1n[n+]([O-])c2ccccc2[n+]1[O-]` [tirapazamine], the “overall response rate (CR+PR)” value in the data set on hepatocellular carcinoma (first 12 evaluable patients) is recorded as 83%. For the same compound, the “patients with over 30% necrosis or partial response (PR)” value in the data set with hepatocellular carcinoma (first 12 evaluable patients) is reported as “Three”. The “response on contrast enhanced MRI at 6th week after embolization” value in the data set with hepatocellular carcinoma is “complete response (CR)”; in the data set on hepatocellular carcinoma (listed as Tirapazamine), “two treated lesions achieved CR”. For the same compound, in the data set on hepatocellular carcinoma (one patient, baseline 15 mm, two other lesions (26 and 10 mm) treated with tirapazamine + TAE), the “largest diameter of untreated lesion at 6th week follow-up” value is recorded as 9 mm. For the same compound, the “complete response (CR) by modified RECIST” value in the data set with hepatocellular carcinoma (single treatment of tirapazamine with TAE, first 12 patients) is recorded as 6/12. Also, the “total bilirubin in serum” value in data set [1] is reported as “within the normal range”. Besides, the “tumor necrosis at dissection on Day 7 (pale color)” value in data set [2] (drug IV + transient HAL, FIG. 2D) is “evident that tumor necrosis occurred”. For the same compound, the “necrosis of HCCs in the territory of the left HAL, Day 7 (H&E)” value in data set [2] was 90-99%. Further, the “inflammatory cell infiltration at margin of necrotic tumor” value in data set [2] (tirapazamine 3 mg/kg IV + left HAL, day 7, FIG. 3 inserts) is “high degree of inflammatory cell infiltration; also recorded: very strong inflammatory infiltrates”. Further, in data set [2], the “necrosis in the HCC within the territory of HAL, Day 1 post-treatment” value is recorded as “more than 99%”. The “effective dose combined with transient HAL” value in data set [2] (titration study, HBx transgenic mouse model) is reported as 3 mg/kg. Moreover, the “toxicities / dose limiting toxicities” value in data set [3] (intra-arterial (IA) via hepatic artery 5 and 10 mg/m^2 + TAE) was “no observed toxicities or dose limiting toxicities (DLT)”; in data set [3] (systemic IV infusion 5 and 10 mg/m^2 + TAE), “no observed toxicities or dose limiting toxicities (DLT)”. For the same compound, the “tolerability of IA administration followed by hepatic artery ligation” value in data set [4] is listed as “well tolerated profile”.
On to `Cc1ccc2c(=O)c3cccc(CC(=O)O)c3oc2c1C` [DMXAA, 5,6-Dimethylxanthenone-4-acetic acid], for which the “effect on tumor vasculature” value in data set [5] is “nearly immediate shutdown of the tumor vasculature”.
On to `COc1ccc(/C=C\c2cc(OC)c(OC)c(OC)c2)cc1O` [combretastatin A4], for which the “effect on tumor vasculature” value in data set [5] is listed as “nearly immediate shutdown of the tumor vasculature”.
